In patent US5118599A, “Yellow couplers for photographic elements and processes” (Eastman Kodak Company, priority 1991, dated 1992):

Columns and labels:
[1] = Photographic single layer element: Dmax, Dmin, gamma and λmax after color development
Procedure: Single layer photographic elements were prepared by coating a cellulose acetate-butyrate film support with a photosensitive layer containing a silver bromide emulsion at 70.2 and 140.4 mg/ft^2 for 2 and 4 equivalent couplers, respectively, gelatin at 350 mg/ft^2 and an image coupler (0.20 mmol/ft^2) dispersed in half its weight of dibutyl phthalate. The photosensitive layer was overcoated with a layer containing gelatin at 250 mg/ft^2 and bis vinylsulfonyl methyl ether hardener at 2.0 weight percent based on total gel.
Samples of each element were exposed imagewise through a stepped density test object and processed at 100° F. employing the following color developing solution, then stopped with a low pH bath, bleached, fixed, washed and dried to produce stepped colored images.
Color Developer Solution (2')
4-Amino-3-methyl-N-ethyl 3.55 g
Water to make 1 liter, pH 10.0
Densitometry in the appropriate color maximum density (Dmin and Dmax) and gamma defined as the maximum slope between any two adjacent density points.

[2] = pKa Measurements; assay type: physicochemical; settings: Table 1
Text: The structural preference of the coupler for the axial conformation has important implications for […]. Due largely to the ability of the carbonyl oxygen to enolize and form H-bonds with the oxygen atoms of the dioxane ring, the pKa of the coupler is generally 1-2 units lower than pivaloyl acetanilide-based couplers. A lower pKa value means that the coupler ionizes more readily at pH 10, and results in higher coupling activity with oxidized color developer, as shown in Table 1.

[3] = Table 4, color developer pH 10.0

| SMILES | λmax ([1]; Table 3, D99, pH 10.0, KS-2) | λmax [1, 3] [nm] | pKa [2] |
| --- | --- | --- | --- |
| CCCCCCCCCCCCCCCCS(=O)(=O)Nc1ccc(OC)c(NC(=O)CC(=O)C2(C)COC(C)(C)OC2)c1 [Coupler D-2] | 446 | – | – |
| CCC(C)(C)c1ccc(OCCCC(=O)Nc2ccc(C)c(NC(=O)C(Oc3ccc(S(=O)(=O)c4ccc(O)cc4)cc3)C(=O)C3(C)COCOC3)c2)c(C(C)(C)CC)c1 [Coupler D-13] | – | 452 | – |
| CCC(C)(C)c1ccc(OCCCC(=O)Nc2ccc(Cl)c(NC(=O)C(Oc3ccc(S(=O)(=O)c4ccc(OCc5ccccc5)cc4)cc3)C(=O)C(C)(C)C)c2)c(C(C)(C)CC)c1 (stereo not drawn) [P-III, reference compound] | – | 450 | 8.76 |
| CCC(C)(C)c1ccc(OCCCC(=O)Nc2cccc(NC(=O)C(Oc3ccc(S(=O)(=O)c4ccc(O)cc4)cc3)C(=O)C3(C)COCOC3)c2)c(C(C)(C)CC)c1 [Coupler D-12] | – | 454 | – |
| CCOC1C(=O)N(C(C(=O)Nc2cc(NC(=O)CCCOc3ccc(C(C)(C)CC)cc3C(C)(C)CC)ccc2OC)C(=O)C2(C)COC(C)(C)OC2)C(=O)N1Cc1ccccc1 [Coupler D-8] | – | 445 | – |
| CCCCCCCCCCCCCCCCS(=O)(=O)Nc1ccc(Cl)c(NC(=O)CC(=O)C(C)(C)C)c1 [P-V, reference compound] | 449 | 449 | – |
| CCC(C)(C)c1ccc(OCCCC(=O)Nc2ccc(Cl)c(NC(=O)CC(=O)C(C)(C)C)c2)c(C(C)(C)CC)c1 [P-VI, reference compound] | 447 | 447 | 10.01 |
| CCC(C)(C)c1ccc(OCCCC(=O)Nc2ccc(OC)c(NC(=O)C(Oc3ccc(S(=O)(=O)c4ccc(O)cc4)cc3)C(=O)C3(C)COC(C)(C)OC3)c2)c(C(C)(C)CC)c1 [Coupler D-7] | – | 445 | – |
| CCCCCCCCCCCCCCCCS(=O)(=O)Nc1ccc(Cl)c(NC(=O)C(Oc2ccc(S(=O)(=O)c3ccc(OCc4ccccc4)cc3)cc2)C(=O)C(C)(C)C)c1 (stereo not drawn) [P-I, reference compound] | – | 452 | – |
| CCC(C)(C)c1ccc(OCCCC(=O)Nc2ccc(Cl)c(NC(=O)C(Oc3ccc(S(=O)(=O)c4ccc(OCc5ccccc5)cc4)cc3)C(=O)C3(C)COCOC3)c2)c(C(C)(C)CC)c1 [Coupler D-11] | – | – | 7.24 |
| CCC(C)(C)c1ccc(OCCCC(=O)Nc2ccc(OC)c(NC(=O)C(Oc3ccc(S(=O)(=O)c4ccc(O)cc4)cc3)C(=O)C3(C)COCOC3)c2)c(C(C)(C)CC)c1 [Coupler D-14] | – | 448 | – |
| CCCCCCCCCCCCCCCCS(=O)(=O)Nc1ccc(Cl)c(NC(=O)CC(=O)C2(C)COCOC2)c1 [Coupler D-4] | 454 | 454 | 8.42 |
| CCC(C)(C)c1ccc(OCCCC(=O)Nc2ccc(OC)c(NC(=O)CC(=O)C3(C)COCOC3)c2)c(C(C)(C)CC)c1 [Coupler D-3] | – | 446 | – |
| CCC(C)(C)c1ccc(OCCCC(=O)Nc2ccc(Cl)c(NC(=O)CC(=O)C3(C)COCOC3)c2)c(C(C)(C)CC)c1 [Coupler D-5] | 452 | 452 | – |
| CCC(C)(C)c1ccc(OCCCC(=O)Nc2ccc(Cl)c(NC(=O)C(Oc3ccc(S(=O)(=O)c4ccc(O)cc4)cc3)C(=O)C3(C)COCOC3)c2)c(C(C)(C)CC)c1 [Coupler D-10] | – | 453 | 7.55 |
| CCC(C)(C)c1ccc(OCCCC(=O)Nc2ccc(Cl)c(NC(=O)CC(=O)C3(C)COC(C)(C)OC3)c2)c(C(C)(C)CC)c1 [Coupler D-0] | – | – | 8.51 |
